Experiment [1] concerns the target T1, Transient receptor potential cation channel subfamily V member 1 (Homo sapiens, UniProt Q8NER1). Put plainly: Antagonist activity against human TRPV1 expressed in CHO cells assessed as inhibition of capsaicin-induced channel activation by FLIPR assay. The format is cell-based.
The subject of experiment [2] is Mus musculus. In words: Inhibition of capsaicin-induced hypothermia in mouse at 10 mg/kg, po administered 15 mins before capsaicin challenge and measured 30 mins post capsaicin injection. The format is functional.
The target in experiment [3] is T1, Transient receptor potential cation channel subfamily V member 1. Put plainly: Antagonist activity against human TRPV1 expressed in CHO cells assessed as inhibition of 45 degC heat-induced channel activation by FLIPR assay. The format is cell-based.
Experiment [4] has as its system Mus musculus. Put plainly: Inhibition of capsaicin-induced hypothermia in mouse administered orally 15 mins before capsaicin challenge and measured 30 mins post capsaicin injection. The format is functional, organism-based.
The target in experiment [5] is T1, Transient receptor potential cation channel subfamily V member 1. In words: Antagonist activity against human TRPV1 expressed in CHO cells assessed as inhibition of pH-induced channel activation by FLIPR assay. The format is cell-based.
Experiment [6] deals with Mus musculus. In words: Inhibition of capsaicin-induced hypothermia in mouse at 0.3 mg/kg, po administered 15 mins before capsaicin challenge and measured 30 mins post capsaicin injection. Type of experiment: functional.
The test system of experiment [7] is Mus musculus. In words: Anti-allodynic activity in mouse model of chronic constriction injury-induced neuropathic pain assessed as inhibition of pain response at 0.001 mg/kg, po. The format is functional.
Experiment [8] relates to Mus musculus. In words: Anti-allodynic activity in mouse model of chronic constriction injury-induced neuropathic pain assessed as inhibition of pain response at 0.01 mg/kg, po. The format is functional.
Experiment [9] has as its system Mus musculus. Put plainly: Inhibition of capsaicin-induced hypothermia in mouse at 0.1 mg/kg, po administered 15 mins before capsaicin challenge and measured 30 mins post capsaicin injection. Type of experiment: functional.
Experiment [10] relates to Mus musculus. Put plainly: Anti-allodynic activity in mouse model of chronic constriction injury-induced neuropathic pain assessed as inhibition of pain response at 0.1 mg/kg, po. The format is functional.
Experiment [11] has as its target T1, Transient receptor potential cation channel subfamily V member 1. In words: Antagonist activity against human TRPV1 expressed in CHO cells assessed as inhibition of NADA-induced channel activation by FLIPR assay. Type of experiment: cell-based.
The test system of experiment [12] is Mus musculus. In words: Anti-allodynic activity in mouse model of chronic constriction injury-induced neuropathic pain assessed as inhibition of pain response at 0.0001 mg/kg, po. Type of experiment: functional.
Experiment [13] concerns Mus musculus. Put plainly: Inhibition of capsaicin-induced hypothermia in mouse at 1 mg/kg, po administered 15 mins before capsaicin challenge and measured 30 mins post capsaicin injection. Type of experiment: functional.
For experiment [14], the system named is Mus musculus. Put plainly: Anti-allodynic activity in orally dosed mouse model of chronic constriction injury-induced neuropathic pain assessed as inhibition of pain response. To be noted: po. The format is functional.

Here are results for nine compounds from ChEMBL document CHEMBL3351970 (Bioorg Med Chem Lett, 2014).

T1 sequence (Q8NER1 whole entry): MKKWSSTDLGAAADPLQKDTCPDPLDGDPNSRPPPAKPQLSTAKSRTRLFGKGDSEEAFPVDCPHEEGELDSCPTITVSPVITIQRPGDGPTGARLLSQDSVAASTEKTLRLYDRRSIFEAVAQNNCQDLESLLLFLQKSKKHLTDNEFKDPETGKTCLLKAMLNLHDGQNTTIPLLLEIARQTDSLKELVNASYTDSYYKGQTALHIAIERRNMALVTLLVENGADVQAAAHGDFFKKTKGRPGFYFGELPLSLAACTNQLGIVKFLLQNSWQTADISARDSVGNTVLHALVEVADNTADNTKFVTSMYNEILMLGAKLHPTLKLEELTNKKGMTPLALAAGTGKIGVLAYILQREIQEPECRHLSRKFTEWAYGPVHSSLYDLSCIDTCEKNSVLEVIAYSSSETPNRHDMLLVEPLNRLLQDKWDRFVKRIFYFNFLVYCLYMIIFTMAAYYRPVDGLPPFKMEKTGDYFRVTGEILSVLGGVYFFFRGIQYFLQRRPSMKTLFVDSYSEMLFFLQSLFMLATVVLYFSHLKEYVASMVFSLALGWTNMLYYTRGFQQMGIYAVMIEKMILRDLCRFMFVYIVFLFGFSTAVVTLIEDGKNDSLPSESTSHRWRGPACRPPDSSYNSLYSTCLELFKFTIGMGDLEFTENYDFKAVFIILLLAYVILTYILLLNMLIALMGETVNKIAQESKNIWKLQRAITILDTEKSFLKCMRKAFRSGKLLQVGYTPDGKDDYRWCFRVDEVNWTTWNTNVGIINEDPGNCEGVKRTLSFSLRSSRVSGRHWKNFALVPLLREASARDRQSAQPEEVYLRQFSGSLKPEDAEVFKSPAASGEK

One may read the Ki as a dissociation constant, usually derived from enzyme kinetics or from competition with a known ligand. On to `CC(C(=O)NCc1ccc(C(F)(F)F)nc1Cc1ccccc1)c1ccc(NS(C)(=O)=O)c(F)c1` (stereo unspecified), for which, in experiment [1], the Ki is 141 nM.

Consider `CC(C(=O)NCc1ccc(C(F)(F)F)nc1-c1ccco1)c1ccc(NS(C)(=O)=O)c(F)c1` (stereo unspecified), for which, in experiment [1], the Ki is 5.8 nM.

`CC(C(=O)NCc1ccc(C(F)(F)F)nc1-c1ccoc1)c1ccc(NS(C)(=O)=O)c(F)c1` (stereo unspecified): the Ki in [1] was found to be 1.4 nM.

The inhibition in vivo is the percentage by which the read-out fell short of the control. Read a high inhibition in vivo as a response far below the control. For orientation: ED50 means the midpoint of the dose-response relation. `CC(C(=O)NCc1ccc(C(F)(F)F)nc1-c1ccc(F)cc1)c1ccc(NS(C)(=O)=O)c(F)c1` (stereo unspecified) had an inhibition in vivo at 10 mg/kg in the experiment on Mus musculus [2] of 91%. The Ki in [3] was 25.9 nM; in experiment [5], 131 nM; in experiment [11], 0.84 nM. Also, the inhibition result with Mus musculus [4] was “Dose-dependent effect”. Also, the inhibition in vivo at 0.3 mg/kg with Mus musculus [6] came to 38%. In addition, the MPE in the experiment with Mus musculus [7] is 30.5%; with Mus musculus [8], 52.9%; with Mus musculus [10], 47.1%; with Mus musculus [12] it was 21.9%. This compound also registered an inhibition in vivo at 0.1 mg/kg in the experiment with Mus musculus [9] of 25%. In the experiment with Mus musculus [13], the inhibition in vivo at 1 mg/kg was 60%. Further, the ED50 in the experiment with Mus musculus [14] is 0.01 mg/kg.

As to `CC(C(=O)NCc1ccc(C(F)(F)F)nc1-n1ccnc1)c1ccc(NS(C)(=O)=O)c(F)c1` (stereo unspecified), the Ki in experiment [1] was 36.1 nM.

`CC(C(=O)NCc1ccc(C(F)(F)F)nc1-c1ccsc1)c1ccc(NS(C)(=O)=O)c(F)c1` (stereo unspecified): the Ki in [1] stood at 2 nM.

For the compound `CC(C(=O)NCc1ccc(C(F)(F)F)nc1-c1cc2ccccc2s1)c1ccc(NS(C)(=O)=O)c(F)c1` (stereo unspecified), in experiment [1], the Ki was 1 nM.

With `COc1cc(OC)cc(-c2nc(C(F)(F)F)ccc2CNC(=O)C(C)c2ccc(NS(C)(=O)=O)c(F)c2)c1` (stereo unspecified), in experiment [1], the Ki was 58 nM.

On to `CC(C(=O)NCc1ccc(C(F)(F)F)nc1/C=C/c1ccccc1)c1ccc(NS(C)(=O)=O)c(F)c1` (stereo unspecified), for which, in experiment [1], the Ki worked out at 2.2 nM.
